Counter-ions that a name gives are not always drawn.
Target: T1, proton pump (H+/K+-ATPase) (UniProt P19156)
T1 construct: The gastric vesicle as an enzyme source was prepared by the same method as in the Experiment 1—1 of WO 94/14795
Assay: Inhibition of proton pump (H+/K+-ATPase) activity, gastric vesicle enzyme source
Format: biochemical
Conditions: pH 6.4, 37° C., 30 min preincubation, linear regression over 5 concentrations, read-out: IC50, inhibitory effects on proton pump (H+/K+-ATPase) activity
Procedure: Test Example 1: Inhibition of proton pump (H^+/K^+-ATPase) activity
The gastric vesicle as an enzyme source was prepared by the same method as in the Experiment 1—1 of WO 94/14795. Further, the inhibitory effect of proton pump activity was measured by the same method as in Experiment 1-2 of WO 94/14795.
Namely, the proton pump activity stimulated by Mg^++ was used as a negative control group, and the activity stimulated by Mg^++ and K^+ was used as a positive control group. Omeprazole was used as the control compound.
Test tubes were divided into 4 groups: Group 1 as negative control group (n=3), Group 2 as positive control group (n=3), Group 3 (n=5×2) to be administered with the compound of the present invention and Group 4 (n=5×2) to be administered with the control compound.
The inhibitory effects of Group 3 and 4 on proton pump activity were measured by employing the compounds prepared in Examples and omeprazole, respectively, each of which was dissolved in dimethyl sulfoxide (DMSO) at 5 different concentrations.
To each of Groups 1, 2, 3, and 4 was added 0.1 ml of magnesium chloride (4 mM) dissolved in 40 mM Tris-HCl buffer (pH 6.4) and 100 μg of enzyme source. The 50 μl of potassium chloride (60 mM) and 50 μl of ammonium chloride (6 mM) dissolved in 40 mM Tris-HCl buffer (pH 6.4) were added to all groups except for Group 1.
10 μl of dimethyl sulfoxide was added to each of Group 1 and 2; and to Group 3 was added […] of dimethyl sulfoxide solution prepared by dissolving compound of Example at 5 different concentrations (n=5×2). To Group 4, was added 10 μl of the solution prepared by dissolving omeprazole in dimethyl sulfoxide at 5 different concentrations (40, 20, 10, 5, 2.5 μM) (n=5×2). […] Tris-HCl buffer (pH 6.4) was added thereto so as to make the total volume 400 μl.
Thereafter the test tubes of each Group were placed at 37° C. for 30 minutes for the preincubation. ATP solution (6.6 mM) was added until the total volume became 500 μl. After the reaction was carried out at 37° C. for 30 minutes, 25% cold trichloroactic acid was added to terminate the enzyme reaction. The released inorganic phosphorous was measured by an automatic analyzer (Express 550, Corning).
The difference between Group 1 and Group 2 represents the proton pump activity activated by K^+ only. The IC50s of Group 3 and 4 were calculated using the Linear Regression method. The concentrations of the test compounds inhibiting 50% of the proton pump activity are represented as IC50 in Table 1.

Row | Compound | IC50 [µM]
1 | Cc1c(CF)nc(Nc2ccc(F)cc2)nc1N1CCc2ccccc2C1C (centres unmarked) [Example 24, 5-methyl-6-fluoromethyl-2-(4-fluorophenylamino)-4-(1-methyl-1,2,3,4-tetrahydroisoquinolin-2-yl)-pyrimidine hydrochloride] | 0.9
2 | COc1ccc2[nH]c([S+]([O-])Cc3ncc(C)c(OC)c3C)nc2c1 (centres unmarked) [Omeprazole, reference compound] | 11.5
3 | Cc1nc(Nc2ccccc2F)nc(N2CCc3ccc(F)cc3C2C)c1C (centres unmarked) [Example 11, 5,6-dimethyl-2-(2-fluorophenylamino)-4-(1-methyl-7-fluoro-1,2,3,4-tetrahydroisoquinolin-2-yl)pyrimidine hydrochloride] | 1.9
4 | Cc1nc(Nc2ccc(F)c(F)c2)nc(N2CCc3ccc(F)cc3C2C)c1C (centres unmarked) [Example 7, 5,6-dimethyl-2-(3,4-difluorophenylamino)-4-(1-methyl-7-fluoro-1,2,3,4-tetrahydroisoquinolin-2-yl)pyrimidine hydrochloride] | 2.6
5 | Cc1nc(Nc2ccc(F)cc2F)nc(N2CCc3ccc(F)cc3C2C)c1C (centres unmarked) [Example 8, 5,6-dimethyl-2-(2,4-difluorophenylamino)-4-(1-methyl-7-fluoro-1,2,3,4-tetrahydroisoquinolin-2-yl)pyrimidine hydrochloride] | 0.7
6 | Cc1cc(F)ccc1Nc1nc(C)c(C)c(N2CCc3cc(F)ccc3C2C)n1 (centres unmarked) [Example 17, 5,6-dimethyl-2-(2-methyl-4-fluorophenylamino)-4-(1-methyl-6-fluoro-1,2,3,4-tetrahydroisoquinolin-2-yl)pyrimidine hydrochloride] | 0.2
7 | Cc1nc(Nc2ccc(F)c(F)c2)nc(N2CCc3ccccc3C2C)c1C (centres unmarked) [Example 1, 5,6-dimethyl-2-(3,4-difluorophenylamino)-4-(1-methyl-1,2,3,4-tetrahydroisoquinolin-2-yl)pyrimidine hydrochloride] | 1.6
8 | Cc1nc(Nc2cccc(F)c2)nc(N2CCc3ccc(F)cc3C2C)c1C (centres unmarked) [Example 12, 5,6-dimethyl-2-(3-fluorophenylamino)4-(1-methyl-7-fluoro-1,2,3,4-tetrahydroisoquinolin-2-yl)pyrimidine hydrochloride] | 3.2

More lines, now with the values ahead:

Row | IC50 [µM] | Compound
9 | 3.8 | Cc1nc(Nc2ccc(F)cc2F)nc(N2CCc3ccccc3C2C)c1C (centres unmarked) [Example 2, 5,6-dimethyl-2-(2,4-difluorophenylamino)-4-(1-methyl-1,2,3,4-tetrahydroisoquinolin-2-yl)pyrimidine hydrochloride]
10 | 0.3 | Cc1cc(F)ccc1Nc1nc(C)c(C)c(N2CCc3ccc(F)cc3C2C)n1 (centres unmarked) [Example 6, 5,6-dimethyl-2-(2-methyl-4-fluorophenylamino)-4-(1-methyl-7-fluoro-1,2,3,4-tetrahydroisoquinolin-2-yl)pyrimidine hydrochloride]
11 | 1 | Cc1nc(Nc2ccc(F)cc2F)nc(N2CCc3cc(F)ccc3C2C)c1C (centres unmarked) [Example 19, 5,6-dimethyl-2-(2,4-difluorophenylamino)-4-(1-methyl-6-fluoro-1,2,3,4,-tetrahydroisoquinolin-2-yl)pyrimidine hydrochloride]
12 | 0.6 | Cc1ccccc1Nc1nc(C)c(C)c(N2CCc3ccc(F)cc3C2C)n1 (centres unmarked) [Example 5, 5,6-dimethyl-2-(2-methylphenylamino)-4-(1-methyl-7-fluoro-1,2,3,4-tetrahydroisoquinolin-2-yl)pyrimidine hydrochloride]
13 | 0.9 | Cc1nc(Nc2ccc(F)cc2)nc(N2CCc3c(Cl)cccc3C2C)c1C (centres unmarked) [Example 35, 5,6-dimethyl-2-(4-fluorophenylamino)-4-(1-methyl-5-chloro-1,2,3,4-tetrahydroisoquinolin-2-yl)pyrimidine hydrochloride]
14 | 4.1 | Cc1nc(Nc2ccc(F)cc2)nc(N2CCc3ccccc3C2C)c1CF (centres unmarked) [Example 25, 5-fluoromethyl-6-methyl-2-(4-fluorophenylamino)-4-(1-methyl-1,2,3,4-tetrahydroisoquinolin-2-yl)-pyrimidine hydrochloride]
15 | 1.2 | Cc1nc(Nc2ccc(Cl)cc2)nc(N2CCc3cc(F)ccc3C2C)c1C (centres unmarked) [Example 20, 5,6-dimethyl-2-(4-chlorophenylamino)4-(1-methyl-6-fluoro-1,2,3,4-tetrahydroisoquinolin-2-yl)pyrimidine hydrochloride]
16 | 1 | Cc1nc(Nc2ccccc2)nc(N2CCc3ccc(F)cc3C2C)c1C (centres unmarked) [Example 4, 5,6-dimethyl-2-phenylamino-4-(1-methyl-7-fluoro-1,2,3,4-tetrahydroisoquinolin-2-yl)pyrimidine hydrochloride]
17 | 0.9 | Cc1nc(Nc2ccc(F)cc2F)nc(N2CCc3c(Cl)cccc3C2C)c1C (centres unmarked) [Example 39, 5,6-dimethyl-2-(2,4-difluorophenylamino)-4-(1-methyl-5-chloro-1,2,3,4-tetrahydroisoquinolin-2-yl)pyrimidine hydrochloride]
18 | 3.7 | Cc1nc(Nc2ccc(F)cc2)nc(N2CCc3ccccc3C2CF)c1C (centres unmarked) [Example 26, 5,6-dimethyl-2-(4-fluorophenylamino)-4-(1-fluoromethyl-1,2,3,4-tetrahydroisoquinolin-2-yl)pyrimidine hydrochloride]
19 | 0.9 | Cc1nc(Nc2ccc(Cl)cc2)nc(N2CCc3ccc(F)cc3C2C)c1C (centres unmarked) [Example 9, 5,6-dimethyl-2-(4-chlorophenylamino)-4-(1-methyl-7-fluoro-1,2,3,4-tetrahydroisoquinolin-2-yl)pyrimidine hydrochloride]
20 | 0.7 | Cc1nc(Nc2ccc(F)cc2)nc(N2CCc3cc(F)ccc3C2C)c1C (centres unmarked) [Example 14, 5,6-dimethyl-2-(4-fluorophenylamino)-4-(1-methyl-6-fluoro-1,2,3,4-tetrahydroisoquinolin-2-yl)pyrimidine hydrochloride]

— patent US6545008B1, “Pyrimidine derivatives and processes for the preparation thereof” (Yuhan Corporation, priority 1998, dated 2003)
